Test results as given in ChEMBL document CHEMBL4152310, “Design and synthesis of novel benzenesulfonamide containing 1,2,3-triazoles as potent human carbonic anhydrase isoforms I, II, IV and IX inhibitors” (Eur J Med Chem, 2018).

These compounds were tested against Carbonic anhydrase 9 (Homo sapiens, UniProt Q16790) (assay: Binding affinity to human carbonic anhydrase 9 by stopped flow CO2 hydration assay).

Row | SMILES | Ki
1 | COc1ccc(C(=O)c2nnn(-c3ccc(S(N)(=O)=O)cc3)c2C(F)(F)F)cc1 | 141 nM
2 | NS(=O)(=O)c1ccc(-n2nnc(C(=O)c3ccc4ccccc4c3)c2C(F)(F)F)cc1 | 248 nM
3 | NS(=O)(=O)c1ccc(-n2nnc(C(=O)c3ccccc3)c2C(F)(F)F)cc1 | 39.8 nM
4 | NS(=O)(=O)c1ccc(-n2nnc(C(=O)c3ccc(Cl)cc3)c2C(F)(F)F)cc1 | 48.2 nM
5 | NS(=O)(=O)c1ccc(-n2cc(C(=O)c3ccc4ccccc4c3)nn2)cc1 | 127 nM
6 | NS(=O)(=O)c1ccc(-n2nnc(C(=O)c3ccc(Br)cc3)c2C(F)(F)F)cc1 | 35.8 nM
7 | NS(=O)(=O)c1ccc(-n2nnc(C(=O)c3ccco3)c2C(F)(F)F)cc1 | 190 nM
8 | NS(=O)(=O)c1ccc(-n2nnc(C(=O)c3ccccn3)c2C(F)(F)F)cc1 | 156 nM
9 | Cc1ccc(C(=O)c2nnn(-c3ccc(S(N)(=O)=O)cc3)c2C(F)(F)F)cc1 | 144 nM
10 | NS(=O)(=O)c1ccc(-n2nnc(C(=O)c3cccs3)c2C(F)(F)F)cc1 | 45.4 nM
11 | NS(=O)(=O)c1ccc(-n2nnc(C(=O)c3ccc(F)cc3)c2C(F)(F)F)cc1 | 38.1 nM
12 | COc1ccc(C(=O)c2cn(-c3ccc(S(N)(=O)=O)cc3)nn2)cc1 | 145 nM

Continued, values first:

Row | Ki | SMILES
13 | 44.7 nM | NS(=O)(=O)c1ccc(-n2cc(C(=O)c3ccc(Br)cc3)nn2)cc1
14 | 47.8 nM | NS(=O)(=O)c1ccc(-n2cc(C(=O)c3ccc(F)cc3)nn2)cc1
15 | 362 nM | NS(=O)(=O)c1ccc(-n2cc(C(=O)c3cccs3)nn2)cc1
16 | 324 nM | Cc1ccc(C(=O)c2cn(-c3ccc(S(N)(=O)=O)cc3)nn2)cc1
17 | 136 nM | NS(=O)(=O)c1ccc(-n2cc(C(=O)c3ccccc3)nn2)cc1
18 | 27.3 nM | NS(=O)(=O)c1ccc(-n2cc(C(=O)c3ccc(Cl)cc3)nn2)cc1
19 | 217 nM | NS(=O)(=O)c1ccc(-n2cc(C(=O)c3ccco3)nn2)cc1
20 | 182 nM | NS(=O)(=O)c1ccc(-n2cc(C(=O)c3ccccn3)nn2)cc1
